US20240033237A1, “USE OF A-KETOGLUTARATE IN MANUFACTURE OF MEDICAMENT” (TONGJI UNIVERSITY, priority 2019, published 2024)

Key:
NF-κB signaling pathway = assay: Activation of NF-κB signaling pathway in IL-1β-stimulated chondrocytes (whole-genome sequencing, nuclear P65 western blot); format: cell-based, mouse
Protocol: Mouse chondrocytes were obtained from 7-day-old C57BL/6 mice (Shanghai Slac laboratory animal Co., Ltd.), and the procedure was as follows: under aseptic surgical conditions, bilateral knee cartilages of C57 mice were carefully stripped and digested with 0.2% neutral collagenase (Serva, Germany) for 8 h; cell precipitates were obtained by centrifugation, and the cells were resuspended in modified Eagle medium (DMEM) (Gibco, USA) containing 10% FBS, inoculated in culture dishes, and cultured with high-sugar DMEM medium (containing 10% FBS, 100 U/mL penicillin and 100 mg/L streptomycin) at 37° C. in a 5% CO2 constant temperature incubator. The medium was changed for the first time at 48 h. […] The cells were collected by centrifugation and resuspended, and the concentration was adjusted for inoculation in culture dishes. The cells were subcultured by the above method, and the obtained cells were labeled as P1, P2, P3 generations, etc. P1 generation mouse chondrocytes cultured in Embodiment 1 were subjected to western blot analysis through operations including the following: • 1. Collecting of protein samples: The culture medium was sucked out, and the cells were washed twice with PBS at 4° C. and then dried. […] The protein concentration was determined by the BCA Protein Quantification Kit. […]

skin hair follicles = assay: Regeneration level of skin hair follicles in mice, intradermal injection, histological staining; format: in vivo; conditions: 12-month-old mice, 4 weeks after injection, vs PBS group
Protocol: The skin on the back of posterior limbs of 12-month-old aged mice was taken, and the treatment group was intradermally injected with PBS-diluted α-KG (1 μl of dimethyl-α-KG dissolved in 4 μl of PBS). A sham operation was performed and PBS was injected as a control. Histological staining was performed to observe the changes of skin hair follicles at 4 weeks after injection.

## COC(=O)CCC(=O)C(=O)OC [α-KG, dimethyl-α-ketoglutarate]
NF-κB signaling pathway; western blot, IL-1β 0 min, 15 min, 30 min, 60 min, 7 mM α-KG
  expression of P65 in the NF-κB signaling pathway in the nucleus: significantly inhibited
NF-κB signaling pathway; whole-genome sequencing, IL-1β stimulation, α-KG complemented
  expression of many genes in the NF-κB signaling pathway: suppressed
Skin hair follicles
  number of skin hair follicles: significantly increased
